Experimental data: US20110263580A1, “METHOD FOR TREATING ALZHEIMER'S DISEASE AND RELATED CONDITIONS” (priority 2008, published 2011)
Read-outs that look alike come from different tables or passages of the source.

Tests used:
[1] = test system: Aβ; assay: Plasma levels of Aβ after a single dose in mice; assay type: in vivo; conditions: single dose of 300 mg/Kg
Description: (§1) Compound IIIA (prepared as described in Sparey et al, Bioorg. Med. Chem. Lett. (2005) 15, 4212-4216) was administered orally to groups of mice (n=10) via gavage in 0.5% methylcellulose by a variety of continuous and intermittent regimens over periods of several weeks, and body weights recorded twice-weekly as a measure of tolerance or otherwise of the drug treatment. Less than 20% loss of body weight after 21 days, with no other overt symptoms, was taken as tolerance, and the results are summarised in the following table:
(§2) Plasma levels of Aβ were monitored 4 hours, 1 day, 3 days, 4 days and 7 days after a single dose of 300 mg/Kg, and found to be (respectively), 0%, 0%, 0%, 67% and 85% of the baseline (control) level, indicating prolonged therapeutic efficacy from the single dose. Plasma levels of the drug had declined to zero within 4 days of the single dose.

[2] = mouse, in vivo, po
Description: as §1, with “table: […]” for “table:”

[3] = Plasma levels of the drug after a single dose in mice; assay type: in vivo; conditions: single dose of 300 mg/Kg
Description: as §1, §2

[4] = rhesus monkey, in vivo; for Tolerated: po
Description: Compound IA (synthesis example 2 herein) was administered orally to groups of rhesus monkeys by continuous and intermittent regimens over periods of days or weeks. Physical signs were recorded and the absence of loose stool, and other overt physical signs, was taken as tolerance.

[5] = test system: Aβ; assay: CSF levels of Aβ post-dose in rhesus monkey; assay type: in vivo
[6] = test system: Aβ42; assay: CSF Aβ42 in rhesus monkeys, once-weekly dosing; assay type: in vivo; conditions: oral, once-weekly 30 mpk, over a 3 week period, relative to vehicle-treated controls
Description: (§3) Compound VIB (Example 23 herein) was administered orally to rhesus monkeys once-weekly at a dose of 30 mpk and levels of Aβ40 and Aβ42 in the cerebrospinal fluid (CSF) were monitored.

[7] = Side effects in rhesus monkeys, once-weekly dosing; assay type: in vivo; conditions: oral, once-weekly 30 mpk
Description: as §3

[8] = test system: Aβ40; assay: CSF Aβ40 in rhesus monkeys, once-weekly dosing; assay type: in vivo; conditions: oral, once-weekly 30 mpk, over a 3 week period, relative to vehicle-treated controls
Description: as §3

O=S1(=O)NC2(CN1CC(F)(F)F)C1CCC2Cc2cc(C=CCN3CCC(C(F)(F)F)CC3)ccc2C1 (stereo not shown) [Compound IIIA]
Plasma levels of Aβ, % of the baseline (control) level ([1]; 4 hours after dose): 0% | Plasma levels of Aβ, % of the baseline (control) level ([1]; 1 day after dose): 0% | Plasma levels of Aβ, % of the baseline (control) level ([1]; 3 days after dose): 0% | Plasma levels of Aβ, % of the baseline (control) level ([1]; 4 days after dose): 67% | Plasma levels of Aβ, % of the baseline (control) level ([1]; 7 days after dose): 85% | Tolerated ([2]; 50 mg/kg): Yes | Tolerated ([2]; 150 mg/kg): No | Tolerated ([2]; 300 mg/kg): Yes | Time until plasma levels of the drug had declined to zero [3]: ≤ 4 days

O=S(=O)(N[C@H]1C[C@@](c2cc(F)ccc2F)(S(=O)(=O)c2ccc(Cl)cc2)C1)C(F)(F)F [Compound IA, N-[cis-3-[(4-chlorophenyl)sulfonyl]-3-(2,5-difluorophenyl)cyclobutyl]-1,1,1-trifluoromethanesulfonamide]
Tolerance [4]: tolerated | Tolerated ([4]; 3 mg/kg): No | Tolerated ([4]; 50 mg/kg): Yes | Tolerated ([4]; 200 mg/kg): Yes | Effect on CSF levels of Aβ ([5]; doses below 10 mg/Kg): do not effect Aβ levels appreciably | Effect on CSF levels of Aβ ([5]; weekly doses): lower CSF Aβ significantly

O=S(=O)(N[C@H]1CC[C@@](c2cc(F)ccc2C(F)(F)F)(S(=O)(=O)c2ccc(C(F)(F)F)cc2)CC1)C(F)(F)F [Compound VIB, 1,1,1-trifluoro-N-(4-[5-fluoro-2-(trifluoromethyl)phenyl]-4-{[4-(trifluoromethyl)phenyl]sulfonyl}cyclohexyl)methanesulfonamide]
Average reduction in CSF Aβ42 levels [6]: approximately 40% | GI toxicity ([7]; 3 week period): no evidence of GI toxicity | Other side-effects (study terminated after 3 weeks) ([7]; unconnected with Notch signalling): respiratory side-effects | Average reduction in CSF Aβ40 levels [8]: approximately 40%
